target: T1, human recombinant Yes [a.a. 2–543 (end)] (Homo sapiens, UniProt P07947); assay: ADP-Glo kinase assay, inhibition rates of Yes phosphorylation activity (first and second screening); format: biochemical; details: first screening; mean of n = 4 wells; 10 μmol L−1 compound
T1 construct: human recombinant Yes [a.a; 2–543 (end)]; purchased BPS Bioscience 40488
Summary of the method: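 ADP-Glo luminescence measured inhibition of human recombinant Yes (a.a. 2–543) phosphorylation activity. In the first screen, each compound ran in 4 wells and inhibition rates were averaged. The second screen retested hits as compounds dissolved from fresh powder.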

T1 sequence (P07947 2-543): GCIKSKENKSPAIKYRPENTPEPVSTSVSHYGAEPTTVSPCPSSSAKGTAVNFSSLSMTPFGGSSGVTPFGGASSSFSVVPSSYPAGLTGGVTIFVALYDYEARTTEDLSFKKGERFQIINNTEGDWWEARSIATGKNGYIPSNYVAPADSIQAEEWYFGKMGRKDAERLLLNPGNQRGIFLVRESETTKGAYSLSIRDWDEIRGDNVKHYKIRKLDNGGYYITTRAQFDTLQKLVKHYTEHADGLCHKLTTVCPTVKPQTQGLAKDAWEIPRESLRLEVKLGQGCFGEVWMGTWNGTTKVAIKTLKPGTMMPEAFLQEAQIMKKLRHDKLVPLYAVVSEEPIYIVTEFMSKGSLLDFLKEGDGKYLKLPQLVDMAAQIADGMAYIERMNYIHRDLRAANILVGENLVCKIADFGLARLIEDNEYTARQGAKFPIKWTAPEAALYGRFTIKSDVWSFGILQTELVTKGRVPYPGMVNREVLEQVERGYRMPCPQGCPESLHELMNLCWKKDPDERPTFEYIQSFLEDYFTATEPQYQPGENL

Structure (SMILES)	First screening IR (inhibition rate) [%]
O=C(O)/C(=C\c1cccc(C(F)(F)F)c1)Sc1nnc(-c2ccco2)o1 [Compound Z95207137]	-11
CCCn1c(/C(Cl)=C/c2ccc(F)c(F)c2)nc2cc(S(=O)(=O)N3CCOCC3)ccc21 [Compound Z95254533]	14
CC(C)C(NC(=O)c1ccc(CNC(N)=O)cc1)c1ccccc1 (centres unmarked) [Compound Z96018682]	-1
O=C(Nc1ccccc1)C1CCN(C(=O)C2CCOCC2)CC1 [Compound Z96031302]	1
CCN(CCCNC(=O)c1cn(-c2ccccc2)nc1-c1cccnc1)c1ccccc1 [Compound Z96041573]	-8
COc1ccc(OC)c(C2CCCN2C(=O)CSc2nnc(Nc3ccccc3C)s2)c1 (centres unmarked) [Compound Z96342510]	9
CCCc1cc(=O)oc2cc(OCC(=O)N(C)CC3COc4ccccc4O3)ccc12 (centres unmarked) [Compound Z97092537]	30
COc1ccc(-n2c(=O)c3ccccc3n3c(SCC(=O)NC(C)CCCC(C)C)nnc23)cc1 (centres unmarked) [Compound Z97290306]	-3
CCN(Cc1ccc2c(c1)OCCO2)C(=O)CSc1nnc(C(C)N(C)C)n1-c1ccc(F)cc1 (centres unmarked) [Compound Z97565837]	15
O=C(CSc1nnc(-c2cccnc2)n1C1CC1)c1ccc2c(c1)OCCCO2 [Compound Z98268667]	5
COc1ccc(C(=O)N[C@@H]2C(=O)Nc3c(c(C)nn3C)[C@H]2c2cccc(C(F)(F)F)c2)cc1OC [Compound Z98361471]	17
Cc1ccc(-n2c(SCC(=O)c3cc(C)n(CC4CCCO4)c3C)nnc2N2CCOCC2)cc1 (centres unmarked) [Compound Z98369603]	22
Cc1ccc(-n2c(SCC(=O)c3ccc(NC(=O)C(C)(C)C)cc3)nnc2N2CCOCC2)cc1 [Compound Z98370329]	11
O=C(O)c1cc(-c2cccnc2)nc2c1cnn2Cc1cccnc1 [Compound Z98638708]	13
Cc1nnc(SCC(=O)c2cc3cc(Cl)ccc3o2)n1C1CC1 [Compound Z98941608]	10
COc1ccccc1NC(=O)c1ccc(NC(=O)COc2ccc(-c3nc(C)cs3)cc2)cc1 [Compound Z99004386]	5
O=C(Cc1csc(-c2ccsc2)n1)Nc1ccc2nc(N3CCOCC3)sc2c1 [Compound Z99468124]	8
Nc1nc(N)nc(CSCc2ccc(-c3ccccc3)cc2)n1 [Compound Z99552008]	-6
CSc1ccc(CSCc2nc(N)nc(Nc3ccccc3)n2)cc1 [Compound Z99558919]	-15
O=C(Nc1ccc(S(=O)(=O)Nc2nccs2)cc1)c1cnn(Cc2ccccc2)c1 [Compound Z100622740]	61
CNS(=O)(=O)c1ccc(NC(=O)c2cn(-c3ccccc3)nc2-c2cccnc2)cc1 [Compound Z101840388]	11
O=C(NCCNc1ncc(C(F)(F)F)cc1Cl)c1ccc2nc[nH]c2c1 [Compound Z101998542]	25
CC(=O)c1c(C)[nH]c(C(=O)NCCCn2cnc3ccccc32)c1C [Compound Z102448822]	20

Structure (SMILES)	First screening IR (inhibition rate) [%]
CSCCC(NC(=O)c1ccco1)C(=O)NCc1ccc(CN(C)C)cc1 (centres unmarked) [Compound Z102556578]	-3
c1ccc(-n2ncc3c(SCCc4ccncc4)ncnc32)cc1 [Compound Z103069550]	11
CCCCn1c(CN2CCN(C(=O)c3ccco3)CC2)nc2c1c(=O)[nH]c(=O)n2Cc1ccccc1 [Compound Z104777504]	-22
CCCCn1c(CN2CCN(c3ncccn3)CC2)nc2c1c(=O)[nH]c(=O)n2Cc1ccccc1 [Compound Z104925552]	9
CCCCn1c(CN2CCN(c3ccccn3)CC2)nc2c1c(=O)[nH]c(=O)n2Cc1ccccc1 [Compound Z104935524]	2
O=S(=O)(c1ccccc1C(F)(F)F)N1CCN(Cc2ncc(-c3ccc(Cl)cc3)o2)CC1 [Compound Z105146244]	-3
O=C(CN1CCSc2ccccc21)N1CCN(S(=O)(=O)c2ccc(Cl)s2)CC1 [Compound Z105335628]	-5
Cc1ccccc1CN1CCN(CC(=O)c2cc(C)n(CC3CCCO3)c2C)CC1 (centres unmarked) [Compound Z105957250]	15
CCCCn1c(CN2CCN(C(=O)C3CCCO3)CC2)nc2c1c(=O)[nH]c(=O)n2Cc1ccccc1 (centres unmarked) [Compound Z105965792]	1
Cc1cccc(C)c1NC(=O)CN1CCN(C(C(=O)N2CCCCC2)c2ccccc2)CC1 (centres unmarked) [Compound Z106611352]	-11
CN(C)C(=O)CN1CCN(CC(=O)Nc2cc(-c3ccc4c(c3)CCC4)nn2-c2ccccc2)CC1 [Compound Z106627256]	-3
Cc1cc(Br)ccc1NC(=O)Cn1nc(C)c(S(=O)(=O)N2CCC(C)CC2)c1C [Compound Z107308838]	-17
Oc1c(-c2nc3ccccc3c3ccccc23)sc2ncccc12 [Compound Z107727738]	43
COc1ccc(C(=O)Nc2n[nH]c(-c3ccc(F)cc3)n2)cc1 [Compound Z108548640]	6
CC(C)(Oc1ccc(Cl)cc1)C(=O)Nc1n[nH]c(-c2ccc(F)cc2)n1 [Compound Z108548764]	16
O=C(CCCSc1ccccc1)Nc1n[nH]c(-c2ccc(F)cc2)n1 [Compound Z108549090]	6
O=C(Nc1n[nH]c(-c2ccc(F)cc2)n1)c1ccccc1F [Compound Z108549754]	-11
FC(F)(F)c1nc(N2CCOCC2)c2cnn(Cc3ccccc3)c2n1 [Compound Z108567148]	-2
O=C(NCC1CCCCC1)c1cc(-c2ccccc2)nc2c1cnn2Cc1ccncc1 [Compound Z108748406]	8
O=C(Nc1nc2c(s1)CN(Cc1ccccc1)CC2)c1csc(-c2ccsc2)n1 [Compound Z108907460]	8
CON(C)C(=O)c1cc(-c2ccccc2)nc2c1cnn2Cc1ccncc1 [Compound Z109300154]	-8
O=C(CN1CCN(C(=O)c2cc(-c3ccccc3)nc3c2cnn3Cc2ccncc2)CC1)NC1CC1 [Compound Z109522106]	12

Other lines, results leading:

First screening IR (inhibition rate) [%]	Structure (SMILES)
-14	COc1ccc(Cl)cc1CN(C)C(=O)c1cc(C(C)C)nc2c1cnn2C(C)C [Compound Z110143980]
8	COc1ccccc1C(=O)Nc1ccc(Nc2nc(-c3ccccc3)c3cc(C)ccc3n2)cc1 [Compound Z111781008]
-20	Cc1cc(SC(C)C(=O)Nc2ccc3[nH]c(=O)[nH]c3c2)nc2ccccc12 (centres unmarked) [Compound Z112518822]
-4	Cc1sc2nc(CN3CCC(C)CC3)n(CC(=O)Nc3ccc(N4CCCC4)cc3)c(=O)c2c1C [Compound Z112958446]
1	CC(Sc1ccc2c(c1)CCC2)C(=O)Nc1sc2c(c1C(N)=O)CCC2 (centres unmarked) [Compound Z113592752]
15	Cc1cccc(-n2c(=O)c3ccccc3n3c(SCC(=O)NC(C)CCCC(C)C)nnc23)c1C (centres unmarked) [Compound Z113967060]
9	Cc1noc(C)c1COC(=O)CCc1nc(-c2cccs2)no1 [Compound Z114088706]
-3	Cc1cc(-c2ccccc2)nc(SC(C)C(=O)Nc2sc3c(c2C(N)=O)CCC3)n1 (centres unmarked) [Compound Z114120486]
1	COc1cc(/C=C/C(=O)c2ccc3c(c2)NC(=O)CO3)ccc1O [Compound Z114950222]
26	CCCN(CCC)c1ccc(/C=C/C(=O)c2ccc3c(c2)NC(=O)CO3)cc1 [Compound Z114950486]
6	Cc1nc(-c2ccsc2)sc1C(=O)Nc1ccc(Cl)cc1F [Compound Z115004236]
4	CN(Cc1cnn(-c2ccccc2)c1)C(=O)c1ccc(Cl)c(S(=O)(=O)N2CCCCCC2)c1 [Compound Z115152726]
12	Cc1noc(C)c1S(=O)(=O)N1CCN(C(=O)CCc2c(C)[nH]c(=O)c(C#N)c2C)CC1 [Compound Z115241120]
3	O=C(NCCCN1CCCC1=O)c1cc(-c2ccccc2)nc2c1cnn2Cc1cccc(F)c1 [Compound Z116386688]
1	NC(=O)c1cc(-c2ccccc2)nc2c1cnn2Cc1ccc(Cl)cc1 [Compound Z116821638]
-16	CN(C)C(CNC(=O)c1cc(-c2ccccc2)nc2c1cnn2Cc1ccncc1)c1ccccc1 (centres unmarked) [Compound Z116834630]
5	O=C(c1cc(-c2ccccc2)nc2c1cnn2Cc1cccc(F)c1)N1CCC1 [Compound Z117073454]
2	Cc1cc(=O)c(C(=O)N2CCC(C(=O)N3CCCCCC3)CC2)nn1-c1ccccc1F [Compound Z117548264]
9	CCN(CC)Cc1ccccc1CNC(=O)c1c(C)nn(-c2ccc(F)cc2)c1C [Compound Z117807680]
-5	Cc1ccc(Nc2ccnc(Nc3ccc(C)cc3)n2)cc1 [Compound Z118512882]
-7	O=C(NC1CCS(=O)(=O)C1)c1nc(Cl)c(Cl)c(Cl)c1Cl (centres unmarked) [Compound Z118688092]
19	O=C(Nc1ccc2[nH]c(=O)[nH]c2c1)c1occc1-c1ccccc1 [Compound Z118811128]

same assay, conditions: second screening, dissolved from fresh powder; n = 4; 10 μmol L−1 compound

Structure (SMILES)	Second screening IR (inhibition rate) [%]
Oc1c(-c2nc3ccccc3c3ccccc23)sc2ncccc12 [Compound Z107727738]	24
